Key:
[1] = molecular target: T1, Neuropeptide Y receptor type 1 (Homo sapiens, UniProt P25929); format: cell membranes, Membrane; conditions: sk-n-mc; further: in other assays of this panel Not Active means under 50% inhibition at 10 µM
T1 sequence (P25929 whole entry): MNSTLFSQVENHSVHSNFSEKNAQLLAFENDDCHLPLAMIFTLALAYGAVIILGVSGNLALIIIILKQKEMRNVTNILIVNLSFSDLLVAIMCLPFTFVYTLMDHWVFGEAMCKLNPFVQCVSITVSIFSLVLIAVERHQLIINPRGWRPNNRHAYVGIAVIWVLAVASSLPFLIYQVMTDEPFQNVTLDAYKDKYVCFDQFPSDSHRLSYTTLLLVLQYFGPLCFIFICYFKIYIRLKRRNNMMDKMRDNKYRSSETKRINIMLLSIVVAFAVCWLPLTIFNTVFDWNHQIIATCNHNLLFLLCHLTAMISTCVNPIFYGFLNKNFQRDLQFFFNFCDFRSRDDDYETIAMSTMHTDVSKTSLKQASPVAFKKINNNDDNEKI

Melanocortin receptor 4 = Melanocortin receptor 4 (Homo sapiens, UniProt P32245); format: cell membranes, Membrane; conditions: hek293; further: in other assays of this panel Not Active means under 50% inhibition at 10 µM
Melanocortin receptor 4, sequence (P32245 whole entry): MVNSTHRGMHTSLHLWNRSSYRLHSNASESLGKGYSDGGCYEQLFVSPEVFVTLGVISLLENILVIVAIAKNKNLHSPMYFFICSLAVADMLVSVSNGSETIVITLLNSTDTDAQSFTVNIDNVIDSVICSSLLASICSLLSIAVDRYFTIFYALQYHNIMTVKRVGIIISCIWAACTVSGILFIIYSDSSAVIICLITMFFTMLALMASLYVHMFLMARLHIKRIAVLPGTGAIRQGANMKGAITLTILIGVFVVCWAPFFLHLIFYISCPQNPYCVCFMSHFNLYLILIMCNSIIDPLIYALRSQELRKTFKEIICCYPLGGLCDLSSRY

[2] = molecular target: T2, Amine oxidase [flavin-containing] A (Homo sapiens, UniProt P21397); test: DRUGMATRIX: Monoamine Oxidase MAO-A enzyme inhibition (substrate: Kynuramine); set-up: species or system BTI-TN-5B1-4; conditions: bti-tn-5b1-4; Not Active = under 50% inhibition at 10 µM
T2 sequence (P21397 whole entry): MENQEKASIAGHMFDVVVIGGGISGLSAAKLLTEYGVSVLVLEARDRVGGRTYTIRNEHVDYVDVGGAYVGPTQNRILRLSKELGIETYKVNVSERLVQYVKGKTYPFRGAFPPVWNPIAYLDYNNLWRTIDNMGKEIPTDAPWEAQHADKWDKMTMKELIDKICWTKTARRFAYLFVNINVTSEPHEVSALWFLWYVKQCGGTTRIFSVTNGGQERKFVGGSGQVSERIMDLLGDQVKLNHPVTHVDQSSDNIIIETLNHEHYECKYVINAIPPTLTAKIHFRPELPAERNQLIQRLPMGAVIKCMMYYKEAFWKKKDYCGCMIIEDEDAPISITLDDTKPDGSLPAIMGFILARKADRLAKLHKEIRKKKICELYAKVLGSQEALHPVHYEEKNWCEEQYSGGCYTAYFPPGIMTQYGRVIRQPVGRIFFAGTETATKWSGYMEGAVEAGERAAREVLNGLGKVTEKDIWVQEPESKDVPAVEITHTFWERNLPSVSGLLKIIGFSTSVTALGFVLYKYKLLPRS

[3] = molecular target: 5-hydroxytryptamine receptor 1B (Rattus norvegicus, UniProt P28564); format: cell membranes, Wistar, Cerebral cortex, Membrane; further: in other assays of this panel Not Active means under 50% inhibition at 10 µM
5-hydroxytryptamine receptor 1B, sequence (P28564 whole entry): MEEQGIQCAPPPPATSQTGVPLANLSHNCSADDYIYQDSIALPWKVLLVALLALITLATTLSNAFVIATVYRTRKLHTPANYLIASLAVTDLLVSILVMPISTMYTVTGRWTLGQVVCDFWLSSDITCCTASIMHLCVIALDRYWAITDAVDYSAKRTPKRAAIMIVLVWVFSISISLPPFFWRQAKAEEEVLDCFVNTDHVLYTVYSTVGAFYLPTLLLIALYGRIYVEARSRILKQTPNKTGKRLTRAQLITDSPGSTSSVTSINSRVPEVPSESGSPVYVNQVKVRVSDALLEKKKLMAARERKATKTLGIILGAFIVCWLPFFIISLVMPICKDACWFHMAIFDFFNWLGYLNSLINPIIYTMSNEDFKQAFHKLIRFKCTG

Cytochrome P450 2D6 = Cytochrome P450 2D6 (Homo sapiens, UniProt P10635); conditions: bti-tn-5b1-4; further: in other assays of this panel Not Active means under 50% inhibition at 10 µM
Cytochrome P450 2D6, sequence (P10635 whole entry): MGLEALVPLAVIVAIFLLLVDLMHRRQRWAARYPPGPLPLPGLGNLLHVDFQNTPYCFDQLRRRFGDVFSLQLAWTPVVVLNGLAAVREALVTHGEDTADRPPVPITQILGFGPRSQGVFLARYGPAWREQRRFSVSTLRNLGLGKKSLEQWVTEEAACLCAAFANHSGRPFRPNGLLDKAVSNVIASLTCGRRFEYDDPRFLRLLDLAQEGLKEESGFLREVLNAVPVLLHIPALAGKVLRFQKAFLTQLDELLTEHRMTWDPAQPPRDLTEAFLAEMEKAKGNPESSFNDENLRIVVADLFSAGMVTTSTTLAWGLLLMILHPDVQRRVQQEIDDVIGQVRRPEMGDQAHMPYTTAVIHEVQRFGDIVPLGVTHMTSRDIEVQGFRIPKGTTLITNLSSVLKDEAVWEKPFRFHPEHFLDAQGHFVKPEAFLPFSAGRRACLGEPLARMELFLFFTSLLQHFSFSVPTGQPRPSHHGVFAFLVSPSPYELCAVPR

[4] = molecular target: T3, Neuropeptide Y receptor type 2 (Homo sapiens, UniProt P49146); format: cell membranes, Membrane; conditions: kan-ts; further: in other assays of this panel Not Active means under 50% inhibition at 10 µM
T3 sequence (P49146 whole entry): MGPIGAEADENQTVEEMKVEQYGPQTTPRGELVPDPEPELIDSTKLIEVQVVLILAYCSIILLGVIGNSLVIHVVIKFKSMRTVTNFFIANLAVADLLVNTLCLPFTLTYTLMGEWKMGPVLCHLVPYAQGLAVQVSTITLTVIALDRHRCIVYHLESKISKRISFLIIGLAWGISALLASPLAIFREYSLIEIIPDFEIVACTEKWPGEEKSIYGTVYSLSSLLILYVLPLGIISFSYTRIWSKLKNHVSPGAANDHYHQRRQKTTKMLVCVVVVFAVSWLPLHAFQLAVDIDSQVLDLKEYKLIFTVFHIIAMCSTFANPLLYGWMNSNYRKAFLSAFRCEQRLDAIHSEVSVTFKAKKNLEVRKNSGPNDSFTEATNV

Cytochrome P450 2C19 = Cytochrome P450 2C19 (Homo sapiens, UniProt P33261); conditions: bti-tn-5b1-4; further: in other assays of this panel Not Active means under 50% inhibition at 10 µM
Cytochrome P450 2C19, sequence (P33261 whole entry): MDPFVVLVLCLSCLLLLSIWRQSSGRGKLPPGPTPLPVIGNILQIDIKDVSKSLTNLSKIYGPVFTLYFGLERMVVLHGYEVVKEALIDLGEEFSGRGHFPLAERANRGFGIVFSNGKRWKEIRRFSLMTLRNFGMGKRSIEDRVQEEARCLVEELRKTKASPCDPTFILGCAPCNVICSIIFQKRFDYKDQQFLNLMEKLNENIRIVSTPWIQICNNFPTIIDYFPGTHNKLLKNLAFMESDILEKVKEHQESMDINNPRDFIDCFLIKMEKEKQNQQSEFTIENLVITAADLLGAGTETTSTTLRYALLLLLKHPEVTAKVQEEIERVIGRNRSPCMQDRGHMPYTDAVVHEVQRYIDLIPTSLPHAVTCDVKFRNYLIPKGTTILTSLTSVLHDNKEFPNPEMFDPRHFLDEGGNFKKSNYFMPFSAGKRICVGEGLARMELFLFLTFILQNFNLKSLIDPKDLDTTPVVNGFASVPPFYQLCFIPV

C[C@]12C/C(=C/O)C(=O)C[C@@H]1CC[C@@H]1[C@@H]2CC[C@@]2(C)[C@H]1CC[C@]2(C)O [OXYMETHOLONE]
Not Active: IC50 [1] | IC50 (Melanocortin receptor 4) | IC50 [2] | IC50 [3] | IC50 (Cytochrome P450 2D6) | Ki (Cytochrome P450 2D6) | IC50 [4] | IC50 (Cytochrome P450 2C19) | Ki (Cytochrome P450 2C19)

CC(C)(CO)C(O)C(=O)NCCCO (configuration not stated) [PANTHENOL]
Not Active: IC50 [1] | IC50 (Melanocortin receptor 4) | IC50 [2] | IC50 [3] | IC50 (Cytochrome P450 2D6) | Ki (Cytochrome P450 2D6) | IC50 [4] | IC50 (Cytochrome P450 2C19) | Ki (Cytochrome P450 2C19)

CCCCC1C(=O)N(c2ccccc2)N(c2ccccc2)C1=O [PHENYLBUTAZONE]
Not Active: IC50 [1] | IC50 (Melanocortin receptor 4) | IC50 [2] | IC50 [3] | IC50 (Cytochrome P450 2D6) | Ki (Cytochrome P450 2D6) | IC50 [4] | IC50 (Cytochrome P450 2C19) | Ki (Cytochrome P450 2C19)

Cc1cccc(Nc2cc(Cl)nc(SCC(=O)O)n2)c1C [PIRINIXIC ACID]
Not Active: IC50 [1] | IC50 (Melanocortin receptor 4) | IC50 [2] | IC50 [3] | IC50 (Cytochrome P450 2D6) | Ki (Cytochrome P450 2D6) | IC50 [4] | IC50 (Cytochrome P450 2C19) | Ki (Cytochrome P450 2C19)

CC[C@H](C)C(=O)O[C@H]1C[C@H](O)C=C2C=C[C@H](C)[C@H](CC[C@@H](O)C[C@@H](O)CC(=O)O)[C@H]21 [PRAVASTATIN]
Not Active: IC50 [1] | IC50 (Melanocortin receptor 4) | IC50 [2] | IC50 [3] | IC50 (Cytochrome P450 2D6) | Ki (Cytochrome P450 2D6) | IC50 [4] | IC50 (Cytochrome P450 2C19) | Ki (Cytochrome P450 2C19)

COBALT(II) ACETYLACETONATE
Not Active: IC50 [1] | Ki [1] | IC50 (Melanocortin receptor 4) | Ki (Melanocortin receptor 4) | IC50 [2] | Ki [2] | IC50 [3] | Ki [3] | IC50 (Cytochrome P450 2D6) | Ki (Cytochrome P450 2D6) | IC50 [4] | Ki [4] | IC50 (Cytochrome P450 2C19) | Ki (Cytochrome P450 2C19)

INSULIN HUMAN
Not Active: IC50 [1] | Ki [1] | IC50 (Melanocortin receptor 4) | Ki (Melanocortin receptor 4) | IC50 [2] | Ki [2] | IC50 [3] | Ki [3] | IC50 (Cytochrome P450 2D6) | Ki (Cytochrome P450 2D6) | IC50 [4] | Ki [4] | IC50 (Cytochrome P450 2C19) | Ki (Cytochrome P450 2C19)

POLYVINYL ALCOHOL
Not Active: IC50 [1] | Ki [1] | IC50 (Melanocortin receptor 4) | Ki (Melanocortin receptor 4) | IC50 [2] | Ki [2] | IC50 [3] | Ki [3] | IC50 (Cytochrome P450 2D6) | Ki (Cytochrome P450 2D6) | IC50 [4] | Ki [4] | IC50 (Cytochrome P450 2C19) | Ki (Cytochrome P450 2C19)

Source: ChEMBL document CHEMBL1909046, “DrugMatrix in vitro pharmacology data”
